From patent publication US20260327214A1, “1,3,4-OXADIAZOLE DERIVATIVE COMPOUNDS AS HISTONE DEACETYLASE 6 INHIBITOR, AND USES THEREOF” (CHONG KUN DANG PHARMACEUTICAL CORP., priority 2022, published 2026)

Assays:
human recombinant HDAC1 = biological target: T1, human recombinant HDAC1 (Homo sapiens, UniProt Q13547); test: HDAC1 enzyme activity inhibition test (HDAC Fluorometric Drug Discovery Kit); format: biochemical; settings: 30° C., 60 minutes, 10 μM substrate
T1 construct: purchased Enzo Life Science BML-SE456
Method in brief: (§1)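 IC50 derived from fluorescence (Ex 360, Em 460) following 30 min development with Developer II. Each reaction held 0.3 μg human recombinant HDAC1 or HDAC6, 10 μM Fluor de Lys SIRT1 substrate and 5-fold serially diluted compound, incubated 60 min at 30 °C.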

human recombinant HDAC6 = biological target: T2, human recombinant HDAC6 (Homo sapiens, UniProt Q9UBN7); test: HDAC6 enzyme activity inhibition test (HDAC Fluorometric Drug Discovery Kit); format: biochemical; settings: for HDAC6 selectivity (fold): HDAC6 over HDAC1; for IC50: human recombinant HDAC6, same protocol as HDAC1
T2 construct: purchased Calbiochem 382180
T2 sequence (Q9UBN7 1-1215): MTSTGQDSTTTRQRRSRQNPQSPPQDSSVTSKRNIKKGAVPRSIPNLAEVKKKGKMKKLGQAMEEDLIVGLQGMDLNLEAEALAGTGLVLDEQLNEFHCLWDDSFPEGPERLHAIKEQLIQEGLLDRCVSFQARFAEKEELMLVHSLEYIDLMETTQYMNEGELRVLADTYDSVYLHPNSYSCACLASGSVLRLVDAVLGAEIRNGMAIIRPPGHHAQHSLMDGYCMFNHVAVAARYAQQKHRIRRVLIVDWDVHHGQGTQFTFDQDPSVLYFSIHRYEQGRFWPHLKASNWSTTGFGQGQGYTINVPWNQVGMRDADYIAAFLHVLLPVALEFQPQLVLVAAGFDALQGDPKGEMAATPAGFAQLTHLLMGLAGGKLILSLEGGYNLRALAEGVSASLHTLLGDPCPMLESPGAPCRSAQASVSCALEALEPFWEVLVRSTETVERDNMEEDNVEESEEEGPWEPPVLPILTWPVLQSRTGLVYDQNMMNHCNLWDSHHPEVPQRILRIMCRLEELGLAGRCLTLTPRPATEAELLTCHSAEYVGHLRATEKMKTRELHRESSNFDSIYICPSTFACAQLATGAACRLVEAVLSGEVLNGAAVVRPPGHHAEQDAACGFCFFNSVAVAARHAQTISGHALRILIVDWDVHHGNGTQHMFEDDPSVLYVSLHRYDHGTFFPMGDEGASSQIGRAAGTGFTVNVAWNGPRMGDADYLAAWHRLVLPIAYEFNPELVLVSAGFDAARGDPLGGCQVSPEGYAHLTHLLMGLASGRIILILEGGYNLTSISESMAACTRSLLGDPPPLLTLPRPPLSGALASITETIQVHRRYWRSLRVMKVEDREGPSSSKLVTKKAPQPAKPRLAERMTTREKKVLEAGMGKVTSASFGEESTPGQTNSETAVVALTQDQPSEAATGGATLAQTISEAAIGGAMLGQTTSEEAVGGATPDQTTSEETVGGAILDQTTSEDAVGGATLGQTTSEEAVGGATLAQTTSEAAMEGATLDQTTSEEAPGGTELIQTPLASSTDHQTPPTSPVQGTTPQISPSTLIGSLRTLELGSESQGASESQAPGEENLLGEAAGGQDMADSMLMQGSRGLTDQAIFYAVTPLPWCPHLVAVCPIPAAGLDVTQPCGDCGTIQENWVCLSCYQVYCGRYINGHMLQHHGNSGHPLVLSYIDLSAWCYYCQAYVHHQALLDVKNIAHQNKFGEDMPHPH
Method in brief: as §1

T1 sequence (Q13547 whole entry): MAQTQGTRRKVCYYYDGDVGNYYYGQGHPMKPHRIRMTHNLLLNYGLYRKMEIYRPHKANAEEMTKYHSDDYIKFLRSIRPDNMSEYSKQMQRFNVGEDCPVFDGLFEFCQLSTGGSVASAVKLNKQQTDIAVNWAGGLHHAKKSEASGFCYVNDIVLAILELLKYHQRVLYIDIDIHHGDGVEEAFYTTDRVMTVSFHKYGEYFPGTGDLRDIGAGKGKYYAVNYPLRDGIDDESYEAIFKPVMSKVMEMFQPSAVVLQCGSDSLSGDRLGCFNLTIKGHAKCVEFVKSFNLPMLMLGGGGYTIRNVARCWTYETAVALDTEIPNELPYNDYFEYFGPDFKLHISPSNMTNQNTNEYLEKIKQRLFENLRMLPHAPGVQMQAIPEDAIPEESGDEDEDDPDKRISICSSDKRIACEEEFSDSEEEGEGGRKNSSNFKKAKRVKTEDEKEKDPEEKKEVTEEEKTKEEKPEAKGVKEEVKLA

IC50 (human recombinant HDAC1) [nM] | HDAC6 selectivity (fold) (human recombinant HDAC6) | IC50 (human recombinant HDAC6) [nM] | SMILES
> 50000 | 614 | 81.4 | Cc1nc(-c2nn(Cc3ncc(-c4nnc(C(F)F)o4)cc3F)c(=S)o2)cs1 [Compound 60, 3-[[5-[5-(difluoromethyl)-1,3,4-oxadiazol-2-yl]-3-fluoro-2-pyridyl]methyl]-5-(2-methylthiazol-4-yl)-1,3,4-oxadiazol-2-thione]
> 50000 | 540 | 92.6 | Cc1ncc(-c2nn(Cc3ncc(-c4nnc(C(F)F)o4)cc3F)c(=S)o2)s1 [Compound 61, 3-[[5-[5-(difluoromethyl)-1,3,4-oxadiazol-2-yl]-3-fluoro-2-pyridyl]methyl]-5-(2-methylthiazol-5-yl)-1,3,4-oxadiazol-2-thione]
> 50000 | 500 | 100 | Fc1cc(-c2nnc(C(F)F)o2)cnc1Cn1nc(-c2cccnc2)oc1=S [Compound 62, 3-[[5-[5-(difluoromethyl)-1,3,4-oxadiazol-2-yl]-3-fluoro-2-pyridyl]methyl]-5-(3-pyridyl)-1,3,4-oxadiazol-2-thione]
> 50000 | 620 | 80.7 | CC(C)N1CCN(Cc2cccc(-c3nn(Cc4ccc(-c5nnc(C(F)F)o5)cn4)c(=O)s3)c2)CC1 [Compound 63, 3-[[5-[5-(difluoromethyl)-1,3,4-oxadiazol-2-yl]-2-pyridyl]methyl]-5-[3-[(4-isopropylpiperazin-1-yl)methyl]phenyl]-1,3,4-thiadiazol-2-one]
> 50000 | 418 | 120 | O=c1sc(-c2cccc(CN3CCN(C4CCC4)CC3)c2)nn1Cc1ccc(-c2nnc(C(F)F)o2)cn1 [Compound 64, 5-[3-[(4-cyclobutylpiperazin-1-yl)methyl]phenyl]-3-[[5-[5-(difluoromethyl)-1,3,4-oxadiazol-2-yl]-2-pyridyl]methyl]-1,3,4-thiadiazol-2-one]
> 50000 | 537 | 93.1 | O=c1sc(-c2cccc(CN3CCN(C4CS(=O)(=O)C4)CC3)c2)nn1Cc1ccc(-c2nnc(C(F)F)o2)cn1 [Compound 65, 3-[[5-[5-(difluoromethyl)-1,3,4-oxadiazol-2-yl]-2-pyridyl]methyl]-5-[3-[[4-(1,1-dioxothietan-3-yl)piperazin-1-yl]methyl]phenyl]-1,3,4-thiadiazol-2-one]
> 50000 | 1497 | 33.4 | CC(C)N1CCN(Cc2ccc(-c3nn(Cc4ccc(-c5nnc(C(F)F)o5)cn4)c(=O)s3)cc2)CC1 [Compound 66]
> 50000 | 890 | 56.2 | O=c1sc(-c2ccc(CN3CCN(C4CCC4)CC3)cc2)nn1Cc1ccc(-c2nnc(C(F)F)o2)cn1 [Compound 67]
> 50000 | 473 | 106 | O=c1sc(-c2ccc(CN3CCN(C4CS(=O)(=O)C4)CC3)cc2)nn1Cc1ccc(-c2nnc(C(F)F)o2)cn1 [Compound 68]
> 50000 | 434 | 115 | O=C1OCC(c2cccs2)=NN1Cc1ccc(-c2nnc(C(F)F)o2)cn1 [Compound 69, 3-[[5-[5-(difluoromethyl)-1,3,4-oxadiazol-2-yl]-2-pyridyl]methyl]-5-(2-thienyl)-6H-1,3,4-oxadiazin-2-one]
> 50000 | 460 | 109 | O=C1OCC(c2cccs2)=NN1Cc1ncc(-c2nnc(C(F)F)o2)cc1F [Compound 70, 3-[[5-[5-(difluoromethyl)-1,3,4-oxadiazol-2-yl]-3-fluoro-2-pyridyl]methyl]-5-(2-thienyl)-6H-1,3,4-oxadiazin-2-one]
> 50000 | 510 | 98 | O=C1OCC(c2ccccc2)=NN1Cc1ncc(-c2nnc(C(F)F)o2)cc1F [Compound 71, 3-[[5-[5-(difluoromethyl)-1,3,4-oxadiazol-2-yl]-3-fluoro-2-pyridyl]methyl]-5-phenyl-6H-1,3,4-oxadiazin-2-one]
> 50000 | 420 | 119 | O=C1OCC(c2ccccn2)=NN1Cc1ccc(-c2nnc(C(F)F)o2)cn1 [Compound 72, 3-[[5-[5-(difluoromethyl)-1,3,4-oxadiazol-2-yl]-2-pyridyl]methyl]-5-(2-pyridyl)-6H-1,3,4-oxadiazin-2-one]
> 50000 | 442 | 113 | O=C1OCC(c2ccccn2)=NN1Cc1ncc(-c2nnc(C(F)F)o2)cc1F [Compound 73, 3-[[5-[5-(difluoromethyl)-1,3,4-oxadiazol-2-yl]-3-fluoro-2-pyridyl]methyl]-5-(2-pyridyl)-6H-1,3,4-oxadiazin-2-one]
> 50000 | 828 | 60.4 | O=C1OCC(c2ccc(-c3ccccn3)s2)=NN1Cc1ccc(-c2nnc(C(F)F)o2)cn1 [Compound 74, 3-[[5-[5-(difluoromethyl)-1,3,4-oxadiazol-2-yl]-2-pyridyl]methyl]-5-[5-(2-pyridyl)-2-thienyl]-6H-1,3,4-oxadiazin-2-one]
> 50000 | 1149 | 43.5 | CN1CCN(c2cccc(-c3nn(Cc4ccc(-c5nnc(C(F)F)o5)cn4)c(=S)o3)c2)CC1 [Compound 75, 3-[[5-[5-(difluoromethyl)-1,3,4-oxadiazol-2-yl]-2-pyridyl]methyl]-5-[3-(4-methylpiperazin-1-yl)phenyl]-1,3,4-oxadiazol-2-thione]
> 50000 | 945 | 52.9 | CC(C)N1CCN(c2cccc(-c3nn(Cc4ccc(-c5nnc(C(F)F)o5)cn4)c(=S)o3)c2)CC1 [Compound 76, 3-[[5-[5-(difluoromethyl)-1,3,4-oxadiazol-2-yl]-2-pyridyl]methyl]-5-[3-(4-isopropylpiperazin-1-yl)phenyl]-1,3,4-oxadiazol-2-thione]
> 50000 | 669 | 74.7 | CC(C)N1CCN(Cc2ccc(-c3nn(Cc4ccc(-c5nnc(C(F)F)o5)cn4)c(=S)o3)cc2)CC1 [Compound 77, 3-[[5-[5-(difluoromethyl)-1,3,4-oxadiazol-2-yl]-2-pyridyl]methyl]-5-[4-[(4-isopropylpiperazin-1-yl)methyl]phenyl]-1,3,4-oxadiazol-2-thione]
> 50000 | 498 | 100 | FC(F)c1nnc(-c2ccc(Cn3nc(-c4ccc(CN5CCN(C6CCC6)CC5)cc4)oc3=S)nc2)o1 [Compound 78, 5-[4-[(4-cyclobutylpiperazin-1-yl)methyl]phenyl]-3-[[5-[5-(difluoromethyl)-1,3,4-oxadiazol-2-yl]-2-pyridyl]methyl]-1,3,4-oxadiazol-2-thione]
> 50000 | 461 | 108 | FC(F)c1nnc(-c2ccc(Cn3nc(-c4ccc(CN5CCN(C6CCCC6)CC5)cc4)oc3=S)nc2)o1 [Compound 79, 5-[4-[(4-cyclopentylpiperazin-1-yl)methyl]phenyl]-3-[[5-[5-(difluoromethyl)-1,3,4-oxadiazol-2-yl]-2-pyridyl]methyl]-1,3,4-oxadiazol-2-thione]
> 50000 | 649 | 77.1 | CC(C)N1CCC(c2cccc(-c3nn(Cc4ccc(-c5nnc(C(F)F)o5)cn4)c(=S)o3)c2F)CC1 [Compound 80, 3-[[5-[5-(difluoromethyl)-1,3,4-oxadiazol-2-yl]-2-pyridyl]methyl]-5-[2-fluoro-3-(1-isopropyl-4-piperidyl)phenyl]-1,3,4-oxadiazol-2-thione]
> 50000 | 576 | 86.8 | Fc1c(-c2nn(Cc3ccc(-c4nnc(C(F)F)o4)cn3)c(=S)o2)cccc1C1CCN(C2CCC2)CC1 [Compound 81, 5-[3-(1-cyclobutyl-4-piperidyl)-2-fluoro-phenyl]-3-[[5-[5-(difluoromethyl)-1,3,4-oxadiazol-2-yl]-2-pyridyl]methyl]-1,3,4-oxadiazol-2-thione]
